The target of data set [1] is T1, wild type transthyretin (WT-TTR) (Homo sapiens, UniProt P02766).
T1 construct: made in house; host or cells: E. coli BL21 (DE3), pET23a plasmid
The data set is described as follows: WT-TTR amyloid fibril formation assay (turbidimetry, acid-induced). It is filed as biochemical. The following applies: pH 4.4, 72 hours; for Fibril Formation (%): WT-TTR 3.6 μM, 1:1 TTR-compound stoichiometry, 37° C., normalized to no-compound control (100%); for IC50: WT-TTR fixed at 3.6 μM, ten compound concentrations. The procedure: (§1) The first set of evaluations is based on a fast, stagnant fibril formation assay that is used for the early screening of compounds, be they virtual screening hits or newly synthesized analogues. In this assay, a solution of the compound under test at 1.8, 3.6 or 7.2 μM is added to a solution of TTR at 3.6 μM, so that there is enough compound to bind to either one or both of TTR's binding sites. The pH of the resulting solution is then lowered to 4.4 to promote amyloidogenesis. The process of amyloid fibril formation over time is assessed by turbidimetry measurements at three different wavelengths (405, 450 and 490 nm, or at 550, 600 and 650 nm when the compound absorbs light at the previous wavelengths), using a spectrophotometer endowed with a BioTek microplate reader. The extent of fibril formation of each mixture is determined by normalizing a sample with the protein (TTR), in absence of compounds, which, at the end of 72 hours, represents 100% of amyloid fibril formation. In each experiment, each compound concentration is tested in triplicate. For each compound concentration and incubation time, the arithmetic mean of the triplicate experiments is calculated, as well as the arithmetic mean of the three measured wavelengths. High activity can be defined as a percentage of fibril formation below 10% at compound concentration 7.2 μM (TTR:compound stoichiometry 1:2) and below 40% at 3.6 μM (TTR:compound stoichiometry 1:1).
The in vitro activity of the compounds was assessed through a biochemical assay based on turbidimetry measurements, in which fibril formation is induced by acidification of the solution to pH 4.4 after incubation with the hit compound to be tested. The amount of amyloid fibrils formed is then monitored throughout 72 hours. Further details on this assay are provided in the “Evaluation of amyloid inhibition in vitro” subsection in “Materials and Methods”.
Experimental evaluation of the in vitro activity of virtual screening hits against amyloid fibril formation by TTR was carried out using a biochemical assay based on turbidimetry measurements. In this assay, fibril formation is induced by acidification of the solution to pH 4.4 after incubation with the hit compound to be tested. The amount of amyloid fibrils formed is monitored over 72 hours. Further details on the assay are provided in the “Evaluation of amyloid inhibition in vitro” subsection below.
(§2) Purchased virtual screening hits and all synthesized (optimization) derivatives were dissolved in DMSO to a final concentration of 10.8 mM to provide a primary stock solution. Several secondary stock solutions were prepared in DMSO by dilution of the primary stock solution and the concentrations were chosen depending on the effectiveness of the compound in inhibiting the TTR amyloid fibril formation.
(§3) The fibril formation assay was adapted to run in a high-throughput screening mode. For this purpose, 96-well microplates were used with a final assay volume of 100 μL.
(§4) One microLitre (μL) of different compound secondary stock solutions was added to 50 μL of a 7.2 μM wild type TTR (WT-TTR) or Val122Ile-TTR (V122I-TTR) solutions in 10 miliMolar (mM) sodium phosphate buffer, 100 mM KCl and 1 mM EDTA, pH 7.2, previously dialyzed against the same buffer solution. After 30 minutes of incubation at room temperature, the pH of the mixture was lowered to 4.4 with 49 μL of 200 mM acetate buffer, 100 mM KCl and 1 mM EDTA, pH 4.3.
The mixtures were incubated at 37° C. during 72 hours. Turbidity at 405 nm, 450 nm and 490 nm (or at 550, 600 and 650 nm when the test compound absorbs light at the previous wavelengths) was measured over time (0, 17, 24, 41, 48, 65 and 72 hours) using a BioTek Microplate Spectrophotometer to evaluate the extent of fibril formation. Immediately before the turbidity measurements, the mixtures were gently shacked during 1 minute to homogenize well and not damage the formed amyloid aggregates and fibrils.

Data set [2] deals with Val122Ile transthyretin (V122I-TTR) (Homo sapiens, UniProt P02766, V142I). Briefly: V122I-TTR amyloid fibril formation assay (turbidimetry, acid-induced). The format is biochemical. The following applies: pH 4.4, 72 hours. On the procedure: as §1, §2, §3, §4
The mixtures were incubated at 37° C. during 72 hours. Turbidity at 405 nm, 450 nm and 490 nm (or at 550, 600 and 650 nm when the test compound absorbs light at the previous wavelengths) was measured over time (0, 17, 24, 41, 48, 65 and 72 hours) using a BioTek Microplate Spectrophotometer to evaluate the extent of fibril formation. Immediately before the turbidity measurements, the mixtures were gently shacked during 1 minute to homogenize well and not damage the formed amyloid aggregates and fibrils. The final turbidity was calculated as an average of the three wavelengths measured.
In addition, control samples containing TTR with no inhibitor and 1% DMSO, as well as inhibitor in absence of TTR were tested and analyzed.
The extent of amyloid fibril formation data was normalized to TTR in the absence of inhibitor, assigned to be 100% fibril formation (or 0% amyloid inhibition) at the end of the experiment.
The extent of amyloid fibril formation throughout 72 hours was determined as described in the “Evaluation of amyloid inhibition in vitro” subsection above.
IC50 values were calculated from the inhibition curves obtained by fitting the values by a nonlinear curve method using the OriginPro7 (OriginLab Corporation, USA).

A short description of data set [3]: HepG2 cell viability, resazurin reduction assay. The following applies: human, HepG2 hepatoma cells, approximately 72 hours incubation, read-out: inhibitory dose (ID50), cell viability. The format is cell-based. The text has this: Cell viability of HepG2 hepatoma cells was quantified in order to assess the toxicity of the compounds at increasing concentrations. The used assay is described in detail in the “Experimental Evaluation of Cytotoxicity of Compounds using Cell-based Assays” section in “Materials and Methods”. This is a relevant assessment not just to discard potential concerns of liver damage (which is a problem reported for many drugs) but also because of the long-term nature of the treatments that patients suffering from TTR-mediated amyloidoses need to undertake.
Adherent human hepatoma cells HepG2 were cultured in DMEM (Dulbecco's Modified Eagle's Medium) with 10% fetal bovine serum (FBS), 100 U/mL penicillin, […] streptomycin, and 1 mM sodium pyruvate. The cells were grown in 75 cm^2 culture flasks at 37° C., in an atmosphere of 5% CO2, and subcultured twice a week using a trypsin-EDTA solution.
Upon 3 to 4 days of growth and reaching approximately 90% confluence, HepG2 cells were plated in 96-well microplates with cell density of 12×10^3 cells/well and in a volume of 100 μL per well.
The compounds are dissolved in DMSO and subsequently diluted in DMEM (in 9 intermediate […] concentrations). After adhesion of HepG2 cells to the microplates, […] 100 μL of each solution of intermediate compound concentration were added to each well (in quadruplicate). Positive controls were done with 10 wells containing only cells; solvent controls resulted from the analysis of the three highest DMSO concentrations tested and were carried out in triplicate.
After addition of the compounds to the cells, the microplates were incubated for approximately 72 hours at 37° C. in an atmosphere of 5% CO2 until the cell viability assay was performed.
The cell viability of HepG2 cells in the presence of test compounds was assessed by the resazurin reduction assay. Resazurin is a redox indicator that is converted into resorufin through reduction reactions of metabolically active cells. In the oxidized form it presents a purplish blue color, while the reduced form presents a purple-pink color.
A stock solution of 0.01% resazurin in PBS is diluted 1:10 in incomplete RPMI 1640 cell medium (without addition of antibiotics and FBS). After washing the cells with 200 μL PBS containing Ca^2+ and Mg^2+, 200 μL of resazurin 0.001% are added to the wells. Control runs with incomplete RPMI 1640 medium only and (without cells) are done in triplicate. […]
To quantify the reduction of resazurin to resorufin, microplate absorbance readings were taken at two wavelengths, 540 nm (reduced form) and 630 nm (oxidized form), in a Biotek spectrophotometer microplate reader. The percentage of viable cells at each compound concentration is determined using the formula: […]
Background: Alamar Blue is a resazurin reagent that responds to reducing activity.

The next data set relates to FAP patients. The following applies: 18-month phase-III clinical trial; cited from earlier work.
A further data set deals with AD/TTR+/− mice. The following applies: cited from earlier work.

The structures appear in SMILES notation.

In the case of `O=C(O)CN1C(=O)/C(=C/c2cc(Cl)c(O)c(Cl)c2)SC1=S` [AT50-A03, (Z)-3-hydroxycarbonylmethyl-5-(3′,5′-dichloro-4′-hydroxyphenylmethylidene)-2-thioxothiazolidin-4-one], the melting point (commonly the temperature, or range, at which the solid turns liquid) is 262 to 264 °C. Moreover, in data set [1], the “Fibril Formation (%)” value is given as 10% and the IC50 came to 1.17 ± 0.03 µM. In data set [2] (V122I-TTR 3.6 μM, 37° C.), the “Fibril Formation (%)” value is 19%. In data set [2] (V122I-TTR fixed at 3.6 μM, ten compound concentrations), this compound showed an IC50 of 1.61 µM. The IC50 at 72 h in data set [3] is over 400 µM.
Take `O=C(O)CN1C(=O)/C(=C/c2cc(F)c(O)c(F)c2)SC1=S` [AT50-A06, (Z)-3-hydroxycarbonylmethyl-5-(3′,5′-difluoro-4′-hydroxyphenylmethylidene)-2-thioxothiazolidin-4-one]: the melting point fell in the range of 221 to 222 °C. Besides, in data set [1], the “Fibril Formation (%)” value is 28% and the IC50 was 1.81 ± 0.4 µM. The IC50 at 72 h in data set [3] was over 400 µM.
With `CNC[C@H](O)[C@@H](O)[C@H](O)[C@H](O)CO.O=C(O)c1ccc2nc(-c3cc(Cl)cc(Cl)c3)oc2c1` [Tafamidis meglumine, N-methyl D-(2,3,4,5,6-pentahydroxy-hexyl)-ammonium; 2-(3,5-dichloro-phenyl)-benzoxazole-6-carboxylate], the “FAP patients with improvement of symptoms” value in the data set with FAP patients is given as “approximately 60%”.
Turning to `O=C(O)c1cc(-c2ccc(F)cc2F)cc(I)c1O` [iododiflunisal], the “brain Abeta levels and deposition, cognitive function” value in the data set on AD/TTR+/− mice was “decreased brain Abeta levels and deposition”.

The values are drawn from patent US11584727B2, “2-thioxothiazolidin-4-one derivatives active as transthyretin ligands and uses thereof” (BSIM Therapeutics, S.A., priority 2014, dated 2023).
